Experimental data from the supplement of paper PMC4862054.

What was measured:
Conditions in all cases: incubation time: 72 h
DU-4475 [1] = assay: normalised response (% of control), CellTiter-Glo; higher = more viable cells (100 = DMSO, 0 = benzethonium chloride kill control)
Procedure: (§1)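 DSRT, 72 h incubation, CellTox Green / CellTiter-Glo readout. Signal is normalised to DMSO and benzethonium chloride controls. Value is the normalised response at dose 3.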

BT-549 [2] = assay: as above
Procedure: as §1

HCC1599 [3] = assay: as above
Procedure: as §1

CAL-148 [4] = assay: as above
Procedure: as §1

HCC1143 [5] = assay: as above
Procedure: as §1

MCF-10A [6] = assay: as above
Procedure: as §1

MDA-MB-436 [7] = assay: as above
Procedure: as §1

CAL-51 [8] = assay: as above
Procedure: as §1

CAL-120 [9] = assay: as above
Procedure: as §1

BT-474 [10] = assay: as above
Procedure: as §1

HCC1937 [11] = assay: as above
Procedure: as §1

MDA-MB-231 [12] = assay: as above
Procedure: as §1

Hs578T [13] = assay: as above
Procedure: as §1

MDA-MB-453 [14] = assay: as above
Procedure: as §1

MDA-MB-468 [15] = assay: as above
Procedure: as §1

CAL-85-1 [16] = assay: as above
Procedure: as §1

MFM-223 [17] = assay: as above
Procedure: as §1

SK-BR-3 = assay: as above
Procedure: as §1

HDQ-P1 [18] = assay: as above
Procedure: as §1

DU-4475 [19] = assay: normalised response (% of control), CellTox Green; higher = less cell death (100 = DMSO, 0 = benzethonium chloride kill control)
Outline: (§2)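 Each entry is the normalised signal at a single concentration within a series. The series comprised 5 concentrations in 10-fold steps over a compound-specific 10,000-fold range, placed in 384-well plates into which breast cancer cell lines were seeded as 20 µl suspension and incubated 72 h. CellTox Green (485/520 nm) fluorescence and then CellTiter-Glo luminescence were read, with signals normalised per plate to 0.1 % DMSO (100) and a positive kill control (0).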

BT-549 [20] = assay: as above
Outline: as §2

HCC1599 [21] = assay: as above
Outline: as §2

CAL-148 [22] = assay: as above
Outline: as §2

HCC1143 [23] = assay: as above
Outline: as §2

MCF-10A [24] = assay: as above
Outline: as §2

MDA-MB-436 [25] = assay: as above
Outline: as §2

CAL-51 [26] = assay: as above
Outline: as §2

CAL-120 [27] = assay: as above
Outline: as §2

BT-474 [28] = assay: as above
Outline: as §2

HCC1937 [29] = assay: as above
Outline: as §2

MDA-MB-231 [30] = assay: as above
Outline: as §2

Hs578T [31] = assay: as above
Outline: as §2

MDA-MB-453 [32] = assay: as above
Outline: as §2

MDA-MB-468 [33] = assay: as above
Outline: as §2

CAL-85-1 [34] = assay: as above
Outline: as §2

MFM-223 [35] = assay: as above
Outline: as §2

HDQ-P1 [36] = assay: as above
Outline: as §2

| SMILES | normalised response (DU-4475 [1]) | normalised response (BT-549 [2]) | normalised response (HCC1599 [3]) | normalised response (CAL-148 [4]) | normalised response (HCC1143 [5]) | normalised response (MCF-10A [6]) | normalised response (MDA-MB-436 [7]) | normalised response (CAL-51 [8]) | normalised response (CAL-120 [9]) | normalised response (BT-474 [10]) | normalised response (HCC1937 [11]) | normalised response (MDA-MB-231 [12]) | normalised response (Hs578T [13]) | normalised response (MDA-MB-453 [14]) | normalised response (MDA-MB-468 [15]) | normalised response (CAL-85-1 [16]) | normalised response (MFM-223 [17]) | normalised response (SK-BR-3) | normalised response (HDQ-P1 [18]) | normalised response (DU-4475 [19]) | normalised response (BT-549 [20]) | normalised response (HCC1599 [21]) | normalised response (CAL-148 [22]) | normalised response (HCC1143 [23]) | normalised response (MCF-10A [24]) | normalised response (MDA-MB-436 [25]) | normalised response (CAL-51 [26]) | normalised response (CAL-120 [27]) | normalised response (BT-474 [28]) | normalised response (HCC1937 [29]) | normalised response (MDA-MB-231 [30]) | normalised response (Hs578T [31]) | normalised response (MDA-MB-453 [32]) | normalised response (MDA-MB-468 [33]) | normalised response (CAL-85-1 [34]) | normalised response (MFM-223 [35]) | normalised response (HDQ-P1 [36]) |
| --- | --- | --- | --- | --- | --- | --- | --- | --- | --- | --- | --- | --- | --- | --- | --- | --- | --- | --- | --- | --- | --- | --- | --- | --- | --- | --- | --- | --- | --- | --- | --- | --- | --- | --- | --- | --- | --- |
| Cc1ccc([N+](=O)[O-])cc1S(=O)(=O)N(C)/N=C/c1cnc2ccc(Br)cn12 [PIK-75] (100 nM) | 8.8% | 8.06% | 47.9% | 44.8% | 38.8% | 10.5% | 11.2% | 12.6% | 38.3% | 18.7% | 36.9% | 8.41% | 14.7% | 56% | 14.4% | 14.4% | 31.3% | 19.3% | 22.1% | 71.8% | 65.2% | 79.3% | 36.5% | 89.3% | 17.8% | 50.7% | 7.25% | 85.3% | 78.3% | 78.6% | -1.87% | 17.7% | 101% | 84.6% | 22% | 84% | 77.6% |
| Cn1cc(C2=Nc3cc(NC(=O)C(N)C4CCCCC4)cc4c3C2=CNNC4=O)cn1 (centres undefined) (100 nM) | 95.1% | 93.5% | 63.3% | 82.7% | 90.9% | 81.7% | 91.6% | 96.7% | 89% | 94.4% | 95.1% | 93.5% | 90.7% | 74.1% | 88.8% | 87.1% | 77.8% | 74.1% | 95.2% | 96.7% | 87.2% | 89.5% | – | 101% | 62.9% | – | 96.1% | 92% | 97.7% | 76.5% | 96.3% | 98.8% | 85% | 106% | 73% | 98.5% | 107% |
| COc1cc2c(cc1O)CC[C@@H]1[C@@H]2CC[C@]2(C)[C@@H](O)CC[C@@H]12 [2-methoxyestradiol] (100 nM) | 101% | 95.5% | 89.4% | 90.6% | 100% | 94.5% | 101% | 63.5% | 101% | 98.5% | 93.4% | 102% | 102% | 91.1% | 103% | 97.3% | 94.2% | 89% | 103% | 98.7% | 110% | 102% | 56.1% | – | 61.8% | 87.4% | 78.3% | 98% | 94% | 97.3% | 99.3% | 103% | 101% | 69.5% | 87.6% | 102% | 107% |
| Nc1nc2[nH]cnc2c(=S)[nH]1 [Thioguanine] (100 nM) | 95.7% | 95.9% | 96.5% | 102% | 101% | 97.4% | 97% | 109% | 108% | 83.4% | 96.3% | 93.5% | 101% | 112% | 98.8% | 91.9% | 96.8% | 98.9% | 90.8% | 101% | 103% | 97.1% | – | 59.1% | 75.6% | 89% | 108% | 100% | 102% | 96.7% | 105% | 90.5% | 99% | 66.4% | 111% | 98.7% | 104% |
